Data on 13 molecules can be found in patent US8476036B2, “Nonluminogenic assay for living cells” (Promega Corporation, priority 2004, dated 2013).

Counter-ions that a name gives are not always drawn. Square brackets hold non-standard residues; d marks the D form. Peptide text beside a SMILES is read from it. * marks the point of attachment. Sta = CC(C)C[C@H](N)[C@@H](O)CC(=O)O; Isovaleryl = CC(C)CC(=O)*

The test system of one assay is HL-60, SK-MEL-28, U937. The assay can be described thus: Protease release assay inhibitor/adjuncts survey with Ala-Ala-Phe-AMC. Type of assay: cell-based. Conditions: for Comments: extent of the effect on release activity, in words; for Effect: on protease release activity, Ala-Ala-Phe-AMC, sonicated, saponin-lysed, or viable cells; for Comments: no inhibition to (concentration): highest concentration without inhibition of release activity. An excerpt:
(§1) Puromycin, E-64, Phenylmethanesulfonyl fluoride (PMSF), Adenosine 5′-triphosphate (ATP), N-(α-Rhamnopyranosyloxyhyrdoxyphosphinyl)-Leu-Trp disodium salt (Phosphoramidon), N-[(2S,3R)-3-Amino-2-hydroxy-4-phenylbutyryl-L-leucine hydrochloride (Bestatin), 1,10-Phenathroline, […], 4-(2-Aminoethyl)benzenesulfonyl fluoride (AEBSF), 1,4-Dithio-DL-threitol (DTT), Edetate disodium dihyrdrate (EDTA), Isovaleryl-L-valyl-L-valyl-[(3S,4S)-4-amino-3-hydroxy-6-methylheptanoyl]-L-alanyl[93S,4S]-4-amino-3-hydroxy-6-methylheptanoicacid (Pepstatin A), sodium chloride, Aprotinin, N-Acetyl-L-leucyl-L-leucyl-L-argininal hemisulfate salt (leupeptin) were all purchased from Sigma. Inhibitors were resuspended in DMSO to varying stock concentrations with a high target concentration of 200 μM or 200 μg/ml in Dulbecco's Phosphate Buffer Saline w/o Mg^++ or Ca^++ (DPBS) for addition to either lysates or viable cell populations. DTT, NaCl, EDTA, and ATP were also diluted in DPBS. All compounds were incubated with compromised or viable cells for a period of at least 30 minutes (most 60 minutes) at 37° C. prior to assessment of activity.
(§2) The protease retention assay inhibitor/adjuncts survey was conducted on sonicated, saponin-lysed, or viable HL-60 and/or U937 using Gly-Phe-AFC at 100 μM final concentration as described previously. The protease release assay inhibitor/adjuncts survey was conducted on sonicated, saponin-lysed, or viable HL-60, SK-MEL-28, and/or U937 using Ala-Ala-Phe-AMC or (Ala-Ala-Phe)2-Rhodamine 110.

The next assay relates to HL-60 and/or U937. Put plainly: Protease retention assay inhibitor/adjuncts survey with Gly-Phe-AFC. Conditions: for Comments: extent or nature of the effect on retention activity, in words; for Effect: on protease retention activity, Gly-Phe-AFC at 100 μM final, sonicated, saponin-lysed, or viable cells; for Comments: no inhibition/no effect to (concentration): highest concentration without effect on retention activity. It counts as cell-based.
Text: as §1, §2

As for `O[C@@H](CS)[C@@H](O)CS` (racemic) [DTT, 1,4-Dithio-DL-threitol], in the assay with HL-60, SK-MEL-28, U937, the Comments entry is on record as “Modest” and the Effect result was “Augments”. Also, in the assay on HL-60 and/or U937, the “Protease retention activity profile in the presence of inhibitors or adjuncts” value was “independent”, the Comments entry was “Very slightly” and the Effect entry was “Augments”.

Regarding `c1cnc2c(c1)ccc1cccnc12` [1,10 Phenanthroline, 1,10-Phenathroline], in the assay with HL-60, SK-MEL-28, U937, the “Comments: no inhibition to (concentration)” value was “to 100 uM” and the Effect result was “No inhib”. For the same molecule, in the assay with HL-60 and/or U937, the “Comments: no inhibition/no effect to (concentration)” value is given as “to 100 uM” and the Effect result is reported as “No inhib”.

Turning to `O=c1oc(Cl)c(Cl)c2ccccc12` [3,4 Diisocoumarin, 3,4-diisocoumarin], in the assay on HL-60, SK-MEL-28, U937, the Comments entry is “Strong” and the Effect entry is given as “Inhibition”. Moreover, in the assay with HL-60 and/or U937, the Comments result is given as “Kills cells” and the Effect entry is recorded as “Inhibition(?)”.

As for `NCCc1ccc(S(=O)(=O)F)cc1` [AEBSF, 4-(2-Aminoethyl)benzenesulfonyl fluoride], in the assay on HL-60, SK-MEL-28, U937, the Comments result is recorded as “Strong” and the Effect result is “Inhibition”.

For `Nc1ncnc2c1ncn2[C@@H]1O[C@H](COP(=O)(O)OP(=O)(O)OP(=O)(O)O)[C@@H](O)[C@H]1O` [ATP, Adenosine 5′-triphosphate], in the assay on HL-60 and/or U937, the “Protease retention activity profile in the presence of inhibitors or adjuncts” value is recorded as “independent”, the “Comments: no inhibition/no effect to (concentration)” value is “to 100 uM” and the Effect entry is reported as “No effect”.

On to `CC(C)C[C@H](NC(=O)[C@@H](O)[C@H](N)Cc1ccccc1)C(=O)O` [Bestatin, N-[(2S,3R)-3-Amino-2-hydroxy-4-phenylbutyryl-L-leucine hydrochloride], for which, in the assay on HL-60, SK-MEL-28, U937, the “Comments: no inhibition to (concentration)” value is on record as “to 10 uM” and the Effect entry was “No inhib”. Further, in the assay on HL-60 and/or U937, the “Protease retention activity profile in the presence of inhibitors or adjuncts” value is recorded as “sensitivities”, the Comments entry is “Strong” and the Effect entry was “Inhibition”.

On to `NC(N)=NCCC[C@H](NC(=O)[C@@H]1CCCN1C(=O)[C@H](N)Cc1ccccc1)C(=O)CCl` [FPR-CMK], for which, in the assay with HL-60, SK-MEL-28, U937, the Comments result is recorded as “Moderate” and the Effect result is on record as “Inhibition”.

For `CC(=O)N[C@@H](CC(C)C)C(=O)N[C@@H](CC(C)C)C(=O)N[C@H](C=O)CCCNC(=N)N` [Leupeptin, N-Acetyl-L-leucyl-L-leucyl-L-argininal hemisulfate salt], in the assay on HL-60, SK-MEL-28, U937, the “Comments: no inhibition to (concentration)” value is recorded as “to 100 ug/ml” and the Effect result is reported as “No inhib”.

Consider `[Cl-].[Na+]` [NaCl, sodium chloride], for which, in the assay on HL-60 and/or U937, the Comments result is “Insensitivity” and the Effect entry was “No inhib”.

For the molecule `CC(C)CC(=O)N[C@H](C(=O)N[C@H](C(=O)N[C@@H](CC(C)C)[C@@H](O)CC(=O)N[C@@H](C)C(=O)N[C@@H](CC(C)C)[C@@H](O)CC(=O)O)C(C)C)C(C)C` [Pepstatin, Isovaleryl-L-valyl-L-valyl-[(3S,4S)-4-amino-3-hydroxy-6-methylheptanoyl]-L-alanyl[93S,4S]-4-amino-3-hydroxy-6-methylheptanoicacid] (Isovaleryl-VV[Sta]A[Sta]-OH), in the assay on HL-60, SK-MEL-28, U937, the “Comments: no inhibition to (concentration)” value is recorded as “to 100 uM” and the Effect result is recorded as “No inhib”.

On to `COc1ccc(C[C@H](N)C(=O)N[C@H]2[C@@H](O)[C@H](n3cnc4c(N(C)C)ncnc43)O[C@@H]2CO)cc1` [Puromycin], for which, in the assay on HL-60 and/or U937, the “Protease retention activity profile in the presence of inhibitors or adjuncts” value was “sensitivities”, the Comments entry is “Very modest” and the Effect entry is on record as “Inhibition”.

As for “Antitrypsin: Serine (trypsin-like) protease inhibitor in Table 6”, in the assay with HL-60, SK-MEL-28, U937, the “Comments: no inhibition to (concentration)” value is given as “to 100 ug/ml” and the Effect entry was “No inhib”.

Consider Aprotinin, for which, in the assay on HL-60, SK-MEL-28, U937, the “Comments: no inhibition to (concentration)” value was “to 100 uM” and the Effect entry was “No inhib”.
